Laboratory results: patent US20120214862A1, “MODULATION OF FACTOR 7 EXPRESSION” (ISIS Pharmaceuticals, Inc., priority 2009, published 2012)
In the oligonucleotide strings, read from the 5' end, every base follows the letter of its sugar. An asterisk marks phosphorothioate; unmarked linkages are phosphodiester. Other units and linkages are bracketed, terminal groups are in braces. A string of capitals states the bases alone. e = 2'-O-(2-methoxyethyl) (MOE); [5mC] = 5-methylcytosine; d = 2'-deoxy (DNA)

The substances below were run on human Factor 7 mRNA (assay: Inhibition of human Factor 7 mRNA by 2-10-2 MOE shortmers in HepB3 cells, electroporation, 1,000 nM). Details: electroporation, 1,000 nM oligonucleotide, approximately 24 hours, relative to untreated control cells.
Type: cell-based
Description: Short antisense oligonucleotides (shortmers) were designed to target a Factor 7 nucleic acid. The shortmers in Table 17 were designed as 2-10-2 MOE gapmers. The gapmers are 14 nucleotides in length, wherein the central gap segment is comprised of 10 2′-deoxynucleotides and is flanked on both sides (in the 5′ and 3′ directions) by wings comprising 2 nucleotides each. Each nucleotide in the 5′ wing segment and each nucleotide in the 3′ wing segment has a 2′-MOE modification. The internucleoside linkages throughout each gapmer are phosphorothioate (P═S) linkages. All cytidine residues throughout each gapmer are 5-methylcytidines.
Shortmers were evaluated for their ability to reduce human Factor 7 mRNA in HepB3 cells and compared with one 5-10-5 chimeric oligonucleotide from Table 16, ISIS 407939. HepB3 cells at a density of 20,000 cells per well in a 96-well plate were transfected using electroporation with 1,000 nM of antisense oligonucleotide. After a treatment period of approximately 24 hours, RNA was isolated from the cells and Factor 7 mRNA levels were measured by real-time RT-PCR, as described herein. Factor 7 mRNA levels were adjusted according to total RNA content as measured by RIBOGREEN®. Results are presented in Table 17 as percent inhibition of Factor 7 mRNA, relative to untreated control cells. ISIS 407939 is the first oligonucleotide in […] to which the shortmers were compared, and is marked by an asterisk (*).

Row | Substance | % inhibition of human Factor 7 mRNA
1 | 435780 (antisense eG*eG*dA*dG*dG*dG*dA*d[5mC]*dG*dA*d[5mC]*d[5mC]*eT*eT) [compound 435780] | 28%
2 | 435678 (antisense eA*eG*dG*dT*d[5mC]*dG*dT*dG*d[5mC]*dT*d[5mC]*dG*e[5mC]*e[5mC]) [compound 435678] | 67%
3 | 435744 (antisense e[5mC]*eT*dA*d[5mC]*dA*dG*d[5mC]*d[5mC]*dT*d[5mC]*dA*dA*eA*e[5mC]) [compound 435744] | 19%
4 | 435650 (antisense e[5mC]*e[5mC]*dG*dG*d[5mC]*d[5mC]*d[5mC]*dT*d[5mC]*dG*dA*dA*eG*eG) [compound 435650] | 6%
5 | 435811 (antisense eG*eT*dG*dG*dT*d[5mC]*dA*dA*dG*dG*dA*dT*eG*eA) [compound 435811] | 27%
6 | 435753 (antisense eA*eA*dG*dA*dG*dT*dG*d[5mC]*dA*dG*d[5mC]*dT*eT*eG) [compound 435753] | 9%
7 | 435492 (antisense eA*e[5mC]*d[5mC]*d[5mC]*dT*dG*dG*dT*dG*dT*dA*d[5mC]*eA*e[5mC]) [compound 435492] | 45%
8 | 435851 (antisense eA*e[5mC]*dA*dG*dG*d[5mC]*d[5mC]*dA*dG*dG*d[5mC]*dT*eG*eG) [compound 435851] | 0%
9 | 435740 (antisense eT*e[5mC]*dA*dT*dT*dT*d[5mC]*dA*dG*dT*dG*dA*eT*eG) [compound 435740] | 0%
10 | 435653 (antisense eA*eT*d[5mC]*dA*dG*d[5mC]*dT*dG*dG*dT*d[5mC]*dA*eT*e[5mC]) [compound 435653] | 32%
11 | 435734 (antisense eA*eT*dG*d[5mC]*dT*dT*d[5mC]*dT*dG*dA*dA*dT*eT*eG) [compound 435734] | 16%
12 | 435743 (antisense eG*e[5mC]*d[5mC]*dT*d[5mC]*dA*dA*dA*d[5mC]*dA*dT*d[5mC]*eT*eA) [compound 435743] | 40%
13 | 435716 (antisense eT*eT*dT*dT*dG*d[5mC]*dA*dG*d[5mC]*d[5mC]*dA*d[5mC]*eT*e[5mC]) [compound 435716] | 22%
14 | 435850 (antisense e[5mC]*eT*dT*dG*dG*d[5mC]*d[5mC]*dA*dG*dT*dG*dT*eG*eG) [compound 435850] | 15%
15 | 435656 (antisense eA*e[5mC]*dT*dG*d[5mC]*dT*d[5mC]*dA*d[5mC]*dA*dG*d[5mC]*e[5mC]*eG) [compound 435656] | 58%
16 | 435746 (antisense eA*eT*dT*dG*dA*d[5mC]*dA*dA*dG*dG*dG*d[5mC]*eT*eG) [compound 435746] | 32%
17 | 435807 (antisense e[5mC]*eA*dG*dT*dA*d[5mC]*dT*dT*d[5mC]*d[5mC]*d[5mC]*dA*e[5mC]*eG) [compound 435807] | 35%
18 | 435634 (antisense eT*eG*dA*dA*dA*dT*d[5mC]*dT*d[5mC]*dT*dG*d[5mC]*eA*eG) [compound 435634] | 5%
19 | 435823 (antisense eT*eG*dA*dG*dT*d[5mC]*d[5mC]*d[5mC]*dA*dG*dG*d[5mC]*eT*eG) [compound 435823] | 41%

Row | Substance | % inhibition of human Factor 7 mRNA
20 | 435816 (antisense eT*e[5mC]*d[5mC]*dA*dA*dA*dG*dG*dA*d[5mC]*dA*dA*eG*eG) [compound 435816] | 4%
21 | 435761 (antisense e[5mC]*eA*dG*dA*dT*dG*dA*dA*dA*dA*d[5mC]*dT*eT*eG) [compound 435761] | 5%
22 | 435680 (antisense eG*eT*dG*d[5mC]*dT*d[5mC]*dG*d[5mC]*dT*dG*dA*dG*eG*eT) [compound 435680] | 52%
23 | 435487 (antisense eA*eG*dT*d[5mC]*d[5mC]*dT*dG*dG*dG*dT*d[5mC]*dA*eT*e[5mC]) [compound 435487] | 36%
24 | 435742 (antisense eA*eT*dG*dT*dG*dA*dG*dG*dG*dT*dT*d[5mC]*eA*eT) [compound 435742] | 11%
25 | 435843 (antisense eG*e[5mC]*dT*dG*dG*dA*dG*d[5mC]*dT*dG*dA*dG*e[5mC]*e[5mC]) [compound 435843] | 0%
26 | 435503 (antisense eT*eG*dT*dA*d[5mC]*dT*dG*dG*dG*dA*dG*dA*e[5mC]*e[5mC]) [compound 435503] | 17%
27 | 435774 (antisense eG*eT*d[5mC]*d[5mC]*d[5mC]*dA*dG*dG*dG*dA*dA*dG*eG*e[5mC]) [compound 435774] | 17%
28 | 435482 (antisense eT*eG*dG*dG*dT*d[5mC]*dA*dT*d[5mC]*dA*dG*d[5mC]*e[5mC]*eG) [compound 435482] | 62%
29 | 435794 (antisense eG*eA*dG*dG*dT*dA*d[5mC]*dA*d[5mC]*dA*dG*dG*e[5mC]*eT) [compound 435794] | 26%
30 | 435681 (antisense eA*eT*dG*dA*d[5mC]*d[5mC]*dT*dG*d[5mC]*dG*d[5mC]*d[5mC]*eA*e[5mC]) [compound 435681] | 40%
31 | 435668 (antisense eT*eG*d[5mC]*d[5mC]*dA*dT*dG*dG*dA*d[5mC]*dA*d[5mC]*eT*e[5mC]) [compound 435668] | 75%
32 | 435651 (antisense eA*e[5mC]*dA*dG*dT*dT*d[5mC]*d[5mC]*dG*dG*d[5mC]*d[5mC]*e[5mC]*eT) [compound 435651] | 71%
33 | 435828 (antisense eG*eA*d[5mC]*d[5mC]*dT*dG*d[5mC]*d[5mC]*d[5mC]*dA*dT*dT*eT*eT) [compound 435828] | 0%
34 | 435672 (antisense eA*e[5mC]*d[5mC]*d[5mC]*dA*dG*dA*dT*dG*dG*dT*dG*eT*eT) [compound 435672] | 12%
35 | 435732 (antisense eG*eA*dA*dA*dA*dG*dT*dG*dA*dG*dA*dG*e[5mC]*eT) [compound 435732] | 0%
36 | 435840 (antisense eG*eG*dG*d[5mC]*d[5mC]*d[5mC]*dG*d[5mC]*d[5mC]*dA*d[5mC]*dT*eG*eG) [compound 435840] | 0%
37 | 435729 (antisense eA*e[5mC]*dA*dG*d[5mC]*dA*d[5mC]*dA*d[5mC]*dA*dT*dG*eG*eA) [compound 435729] | 30%
38 | 435801 (antisense e[5mC]*eG*dG*dT*dT*dG*dG*d[5mC]*d[5mC]*dA*dG*dG*e[5mC]*e[5mC]) [compound 435801] | 38%
